What was measured:
N2a cells [1] = assay: Aβ uptake assay with fluorescently labeled Aβ in N2a cells; type: cell-based, mouse; conditions: for effect on cellular uptake of TAMRA-Aβ1-40 (in words): 200 nM TAMRA-Aβ1-40, various concentrations of compound; for increase in Aβ1-40 uptake: fluorometry
Method: Fluorescent conjugated Aβ peptides were ≥95% in purity as determined by the HPLC method per the vendor (AnaSpec; Fremont, CA, USA). These peptides were dissolved in dimethyl sulfoxide to make 100 μM stock solutions, aliquoted, and stored at −80 °C until use. The fluorescent intensity and protein concentration of each peptide was determined as described below to calculate their specific activities (fluorescent intensity per mg of the conjugated peptide).
(§1) The Aβ uptake assay was performed as described, with modifications. N2a cells were seeded in a 24-well culture plate (2 × 10^5 cells/well) the day prior to the experiments. The next day (cell density at near confluency), cells were rinsed twice with warmed (37 °C) DMEM and incubated in DMEM containing 0.1% bovine serum albumin, 200 nM fluorescently labeled Aβ in the presence or absence of various concentrations of test compounds in a final volume of 200 µL. Cells were then incubated at 37 °C for three hours in the humidified CO2 incubator. The culture plate was placed on ice and the reaction medium was collected in a 1.5-mL microcentrifuge tube. Cells were rinsed twice with phosphate-buffered saline (PBS) containing 137 mM NaCl, 2.7 mM KCl, 10 mM Na2HPO4, and 1.8 mM KH2PO4 (pH: 7.4). To cleave cell surface-bound Aβ and extracellular matrix proteins, cells were treated with 0.05% trypsin in 200 µL PBS at room temperature on an orbital shaker for 5 min. Detached cells were transferred to a microcentrifuge tube and centrifuged at 5000× g for 5 min using a bench-top centrifuge (Thermo Fisher Scientific, Waltham, MA, USA). The supernatant and cell pellet were separated and kept at −80 °C until analysis. Cells were lysed in a buffer containing 20 mM HEPES (pH 7.4), 7.5 mM MgCl2, 1% sodium dodecyl sulfate, 1% Triton X-100, and Complete protease inhibitor cocktail (Sigma-Aldrich, St. Louis, MO, USA). The cell lysate was centrifuged at 10,000× g at 4 °C for 10 min. The fluorescent intensity was measured at λEX = 490 and λEM = 520 for FAM, and λEX = 545 and λEM = 575 for TAMRA using a Biotek Synergy HT plate reader (Winooski, VT). Protein concentrations of the cell lysates were determined using a BCA assay kit (Sigma-Aldrich, St. Louis, MO, USA). The fluorescent intensity of each sample was used to calculate an amount of Aβ in pmole and normalized to protein content. Cellular uptake of Aβ was expressed as pmole/mg protein.

N2a cells [2] = assay: Aβ uptake assay with pharmacologic inhibitors of endocytosis; type: cell-based, mouse; conditions: for effect on TAMRA-Aβ1-40 uptake with or without AMF (in words): in the presence or absence of 10 μM AMF, heparin 20 U/mL, cytochalasin D 0.4 or 2 μg/mL
Method: as §1
To examine the role of receptor-mediated endocytosis on AMF-induced promotion of Aβ1-40 uptake, we performed the Aβ uptake assay utilizing pharmacologic inhibitors of endocytosis. […] Thirty minutes later, cells were subjected to the Aβ uptake assay with or without 10 μM AMF as described above.

N2a cells [3] = assay: Immunoblotting of internalized Aβ1-40 in cell lysates; type: cell-based, mouse; conditions: for effect on intracellular levels of full-length (~4-kDa) monomeric Aβ1-40: N2a cells, unlabeled Aβ1-40, 3 h, 10 μM AMF or leupeptin 100 μg/mL, SDS-PAGE and immunoblotting, normalized to α-tubulin
Method: To examine the integrity of Aβ1-40 taken up into neuronal cells, N2a cells were treated with the lysosomal enzyme inhibitor, leupeptin (100 μg/mL), unlabeled Aβ1-40 peptide in the presence or absence of AMF and for 3 h, and cell lysates were subjected to SDS-PAGE followed by immunoblotting with an anti-Aβ1-40 antibody (Figure 4A,B). We observed that the intracellular levels of the full-length (~4-kDa), monomeric Aβ1-40 was increased in the presence of AMF (Figure 4A,B). […] The internalized Aβ1-40 was almost completely degraded within 3 h when N2a cells were incubated with Aβ1-40 for 3 h followed by incubation in the Aβ1-40-free culture medium (washout) for an additional 3 h (Figure 4A,B).
An equal amount of protein samples (5 µg/lane) was separated on a 4–20% gradient tris-tricine gel (Bio-Rad, Hercules, CA, USA) per our published protocol. The gel was transferred to a nitrocellulose membrane (Bio-Rad) at 4 °C for 3 h. Blots were blocked with PBS containing 5% dry milk for 1 h and incubated in PBS solution containing an anti-Aβ antibody HJ2 (1:2000 dilution) or anti-α-tubulin antibody (1:5000 dilution, Sigma-Aldrich). After washing, blots were incubated with goat anti-mouse IgG conjugated with horseradish peroxidase (Bio-Rad, Hercules, CA, USA). The signal was visualized using the HRP chemiluminescent kit (ThermoFisher Scientific, Waltham, MA, USA), and photographic images were taken using a Syngene gel imaging system (Frederick, MD, USA).

N2a cells [4] = assay: Lactate dehydrogenase (LDH) activity assay for cytotoxicity; type: cell-based, mouse; conditions: 24 h
Method: The cytotoxicity of Aβ species in N2a cells was assessed using an LDH activity assay kit according to the manufacturer’s protocol (Sigma-Aldrich, St. Louis, MO, USA). Briefly, the Aβ uptake assay was performed as described above using FAM-Aβ1-40 or FAM-Aβ1-42. Twenty-four hours later, the incubation medium was transferred to a microcentrifuge tube and spun at 10,000× g for 5 min to remove cell debris. Triplicate samples of the assay medium were added with an equal volume of LDH master reaction mixture (50 µL/well) to each well of a 96-well plate. The optical density was measured at 37 °C for 30 min at a 5-min interval at a wavelength of 450 nm using a plate reader (Biotek, Winooski, VT, USA).

BV2 microglial cells = assay: Aβ uptake assay in BV2 microglia; type: cell-based, mouse; conditions: 200 nM TAMRA-Aβ1-40, 3 h, 37 °C, three independent experiments
Method: (§2) Figure 7 Amentoflavone promotes the cellular uptake of Aβ peptide in glial cells. Mouse BV2 microglial cells (A) and immortalized astrocytes (B) were incubated with or without 2 or 10 μM amentoflavone (AMF) plus 200 nM TAMRA Aβ1-40 for three hours at 37 °C. The cells were harvested, and the fluorescent intensity of TAMRA was determined by fluorometry.
(§3) N2a cells were grown in Dulbecco’s Modified Eagle Medium (DMEM) supplemented with 10% fetal bovine serum, 100 U/mL penicillin and 100 µg/mL streptomycin at 37 °C in a humidified CO2 incubator (Thermo Fisher Scientific, Waltham, MA, USA). Cells at less than five passages were used in the experiments. The immortalized BV-2 murine microglial cell line was grown and maintained in DMEM containing antibiotics and 2% fetal bovine serum. The immortalized mouse astrocyte cell line was kindly gifted by David Holtzman at Washington University in St. Louis and maintained in DMEM containing antibiotics and 10% fetal bovine serum.
(§4) The Aβ uptake assay was performed as described, with modifications. […] The fluorescent intensity was measured at λEX = 490 and λEM = 520 for FAM, and λEX = 545 and λEM = 575 for TAMRA using a Biotek Synergy HT plate reader (Winooski, VT). Protein concentrations of the cell lysates were determined using a BCA assay kit (Sigma-Aldrich, St. Louis, MO, USA). […] Cellular uptake of Aβ was expressed as pmole/mg protein.

N2a cells [5] = assay: Aβ uptake assay with fluorescently labeled Aβ in N2a cells; type: cell-based, mouse; conditions: 200 nM TAMRA-Aβ1-40, 10 μM AMF, one, three and six hours, TAMRA fluorescence liberated by trypsin digestion
immortalized astrocytes = assay: Aβ uptake assay in immortalized astrocytes; type: cell-based; conditions: immortalized mouse astrocytes, 2 or 10 μM AMF, 200 nM TAMRA-Aβ1-40, 3 h
Method: as §2, §3, §4

Molecule: TAMRA-Aβ1-40: Aβ1-40 conjugated with a fluorophore 5-carboxytetramethylrhodamine [reference compound]
- concentration of TAMRA-Aβ1-40 in the culture medium without AMF (N2a cells [1]; 200 nM TAMRA-Aβ1-40 alone (vehicle), after 3 h, mean ± S.E.M. (n = 4)): 189 ± 0.6 nM

Molecule: fucoidan
- effect on TAMRA-Aβ1-40 uptake without AMF (in words) (N2a cells [2]; 200 nM TAMRA-Aβ1-40, 3 h, no AMF): no effect
- TAMRA-Aβ1-40 uptake with inhibitor in the presence of AMF (N2a cells [2]; 100 μM fucoidan (30 min pretreatment) plus 10 μM AMF, 200 nM TAMRA-Aβ1-40, 3 h, mean ± S.E.M., three independent experiments): 1.98 ± 0.17 pmole/mg protein

Molecule: CC(=O)N[C@@H](CC(C)C)C(=O)N[C@@H](CC(C)C)C(=O)N[C@H](C=O)CCCNC(=N)N [leupeptin, reference compound]
- effect on AMF-induced promotion of Aβ1-40 uptake (N2a cells [1]; TAMRA-Aβ1-40, leupeptin plus 10 μM AMF, peptide remaining in the culture medium): did not influence
- effect on intracellular levels of full-length (~4-kDa) monomeric Aβ1-40 (N2a cells [3]): significantly increased

Molecule: FAM-Aβ1-42: FAM-labeled Aβ1-42 [reference compound]
- cellular uptake of labeled peptide without AMF (N2a cells [1]; 200 nM peptide, DMEM with 0.1% BSA, 3 h, 37 °C, fluorometry of cell lysate after trypsin, mean ± S.E.M. (n = 4)): 3.34 ± 0.84 pmole/mg protein

Molecule: ApoE particles: astrocyte-secreted apolipoprotein E particles, inhibitor of LRP-1-mediated endocytosis
- inhibition of AMF-induced TAMRA-Aβ1-40 uptake (N2a cells [2]; 200 nM ApoE particles plus 10 μM AMF, 3 h): ~ 30%
- decrease of cellular uptake of TAMRA-Aβ1-40 (N2a cells [2]; 200 nM ApoE particles, no AMF, 3 h): ~ 75%

Molecule: Aβ1-40: unlabeled human Aβ1-40 peptide
- time to almost complete degradation of internalized Aβ1-40 (N2a cells [3]; N2a cells incubated with Aβ1-40 for 3 h, then Aβ1-40-free culture medium (washout), immunoblotting): ≤ 3 h

Molecule: O=c1c(O)c(-c2ccc(O)c(O)c2)oc2cc(O)cc(O)c12 [quercetin, reference compound]
- effect on cellular uptake of TAMRA-Aβ1-40 (in words) (N2a cells [1]; 3 h): little to no effect

Molecule: O=C(O[C@@H]1Cc2c(O)cc(O)cc2O[C@@H]1c1cc(O)c(O)c(O)c1)c1cc(O)c(O)c(O)c1 [EGCG, (-)-epigallocatechin gallate, reference compound]
- effect on cellular uptake of TAMRA-Aβ1-40 (in words) (N2a cells [1]; 3 h): little to no effect

Molecule: O=c1cc(-c2ccc(O)cc2)oc2cc(O)cc(O)c12 [apigenin, reference compound]
- effect on cellular uptake of TAMRA-Aβ1-40 (in words) (N2a cells [1]; 3 h): little to no effect

Molecule: FAM-Aβ1-40: 5-carboxyfluorescein-labeled Aβ1-40 [reference compound]
- cytotoxicity by LDH release (in words) (N2a cells [4]; 200 nM peptide, in the absence or presence of AMF): did not cause cell death

Molecule: O=c1cc(-c2ccc(O)c(-c3c(O)cc(O)c4c(=O)cc(-c5ccc(O)cc5)oc34)c2)oc2cc(O)cc(O)c12 [AMF, amentoflavone]
- effect on FAM-Aβ1-42-induced LDH release (N2a cells [4]; 200 nM FAM-Aβ1-42, co-treatment with 1, 3 and 10 μM AMF): significantly inhibited
- increase in intracellular levels of TAMRA-Aβ1-40 (BV2 microglial cells; 2 μM AMF): 2.2 fold
- increase in intracellular levels of TAMRA-Aβ1-40 (BV2 microglial cells; 10 μM AMF): 3.0 fold
- effect on TAMRA-Aβ1-40 binding to cell membrane (N2a cells [5]): significantly increased
- TAMRA-Aβ1-40 uptake with AMF, no inhibitor (N2a cells [2]; 10 μM AMF, 200 nM TAMRA-Aβ1-40, 3 h, mean ± S.E.M., three independent experiments): 3.01 ± 0.22 pmole/mg protein
- effect on cellular uptake of TAMRA-Aβ1-40 in astrocytes (in words) (immortalized astrocytes): significantly increased to a similar extent
- effect on intracellular accumulation of FAM-Aβ1-40 (N2a cells [1]; 200 nM FAM-Aβ1-40, various concentrations of AMF, 3 h): increased
- cellular uptake of FAM-Aβ1-42 with AMF (N2a cells [1]; 200 nM FAM-Aβ1-42 plus 10 μM AMF, 3 h, mean ± S.E.M. (n = 4)): 7.52 ± 0.50 pmole/mg protein
- effect on internalization of the inverted peptide FAM-Aβ42-1 (N2a cells [1]; 200 nM FAM-Aβ42-1, 10 μM AMF, 3 h): no effect
- increase in Aβ1-40 uptake (N2a cells [1]; 200 nM TAMRA-Aβ1-40, 1 μM compound, 3 h, 37 °C, mean ± S.E.M. (n = 4)): 1.48 ± 0.05 fold
- increase in Aβ1-40 uptake (N2a cells [1]; 200 nM TAMRA-Aβ1-40, 3 μM compound, 3 h, 37 °C, mean ± S.E.M. (n = 4)): 2.48 ± 0.18 fold
- increase in Aβ1-40 uptake (N2a cells [1]; 200 nM TAMRA-Aβ1-40, 10 μM compound, 3 h, 37 °C, mean ± S.E.M. (n = 4)): 3.64 ± 1.12 fold
- effect on cellular uptake of TAMRA-Aβ1-40 (in words) (N2a cells [1]; 3 h): most potent activity
- concentration of TAMRA-Aβ1-40 in the culture medium with AMF (N2a cells [1]; 200 nM TAMRA-Aβ1-40 plus 10 μM AMF, after 3 h, mean ± S.E.M. (n = 4)): 170 ± 1.6 nM
- effect on intracellular levels of full-length (~4-kDa) monomeric Aβ1-40 (N2a cells [3]): increased

Molecule: C=C1[C@@H](C)[C@H]2[C@H](Cc3ccccc3)NC(=O)[C@]23[C@H](OC(C)=O)/C=C/[C@@](C)(O)C(=O)[C@@H](C)C/C=C/[C@H]3[C@@H]1O [cytochalasin D]
- effect on TAMRA-Aβ1-40 uptake with or without AMF (in words) (N2a cells [2]; 200 nM TAMRA-Aβ1-40, 3 h): not blocked

Molecule: heparin
- effect on TAMRA-Aβ1-40 uptake with or without AMF (in words) (N2a cells [2]; 200 nM TAMRA-Aβ1-40, 3 h): in part attenuated

Source: paper PMC9180170, “Amentoflavone Promotes Cellular Uptake and Degradation of Amyloid-Beta in Neuronal Cells” (International Journal of Molecular Sciences, 2022)
